What was measured:
[1] = In vitro release of conjugated drug into solution/buffer; type: physicochemical; details: after 12 hours in buffer at pH7.4 at 37° C.
Procedure: About 10% of the conjugated drug was released after 12 hours in a buffer at pH7.4 at 37° C.

[2] = tested on: RAW 264.7 cells (growth, thymidine incorporation); experiment: Cytotoxicity by 3H-thymidine incorporation in murine RAW 264.7 cells; details: mouse, RAW 264.7 cells
Procedure: (§1) The final aldehyde concentrations in the test were 0.01-34 μmol/mL.
(§2) The cytotoxicity of dextran derivatives was evaluated in murine RAW 264.7 cells, an internationally recognized cell line for examination of drug effects.
(§3) Growth inhibition was estimated by the ^3H-thymidine incorporation method. Cells were cultured in flat-bottom flasks at 37° C. Before each experiment the cells were washed and removed by trypsin treatment or scraped from the flask bottom, and an appropriate volume was centrifuged, resuspended, and diluted in growth medium to the desired cell concentration. […] By use of an automated dispenser, 200 μL of cell suspension was added to each well of a microtiter plate. After incubation overnight, the appropriate drug concentration, in triplicate, was added to test wells. Drug-free medium was used as control. ^3H-Thymidine (0.5 μCi) in 20 μL of medium was added the next day, and the plate was harvested and read by liquid scintillation counter (LKB, Finland) after an additional 24 h. The percent growth inhibition of the cells by the drug tested was calculated as [100−(count with drug/control count)×100].
(§4) Dextran with 50% oxidation was used as a positive toxicity control.
(§5) Drug effect and the IC50 were defined as previously described.

RAW 264.7 cells = experiment: as above
Procedure: as §1, §2, §3, §4, §5

[3] = tested on: Staphylococcus Aureus and E. Coli; experiment: Antimicrobial activity, filter paper disc on seeded agar plate; type: cell-based; details: 24 hours at 37° C.; 6 mm filter paper; equivalent amounts of drug
Procedure: The antimicrobial activity of these conjugates was determined as follows: Saline solutions of equivalent amounts of the drug in free form or the imine AG conjugate were absorbed onto a circular filter paper (6 mm in diameter) and placed on a seeded agar plate with Staphylococcus Aureus (10^5/ml) and E. Coli incubated for 24 hours at 37° C.

Sheep erythrocytes = experiment: Hemolysis evaluated visually after 1 h incubation at 37° C.; type: cell-based; details: visual
[4] = tested on: Leishmania donovani IS promastigotes; experiment: In vitro activity against Leishmania donovani promastigotes (3H-thymidine incorporation); type: cell-based
Procedure: The in vitro antiparasitic activity was evaluated against Leishmania donovani IS promastigotes. This strain, isolated from a patient in Sudan, was received from the International Reference Center of the Kuvin Center for Infectious Diseases in the Hebrew University of Jerusalem.
Serial dilutions of the tested agents were prepared in RPMI 1640 growth medium. The final AmB concentration in the test ranged from 0.2 to 6 μg/mL. Wells containing drug-free medium served as control. […] Briefly, 96-well plates were seeded with 60,000 promastigotes/well in 200 μL of medium, and test solutions were added 3 h later. After 24 h of incubation, 0.5 μCi/well ^3H-thymidine (in 10% FCS medium) was added, and the cultures were harvested after an additional 24 h. During the experiment the cells were incubated at 25° C. in air. The drug effect and the IC50 of the conjugates were estimated as described before (Example 7).

Molecule: Somatostatin-Arabinogalactan Ethanolamine Conjugate: somatostatin conjugated to 32% oxidized AG, reacted with excess ethanolamine
- conjugated drug released [1]: About 10%

Molecule: O=CCCCC=O [Glutaraldehyde]
- IC50 at 48 h [2]: < 0.15 µg/mL

Molecule: Native Dextran
- IC50 (in vitro cytotoxicity of modified dextran) (RAW 264.7 cells): >5000 µg/mL

Molecule: gentamicin
- inhibition zone [3]: > 20 mm

Molecule: C[C@@H]1[C@H](O)[C@@H](C)/C=C/C=C/C=C/C=C/C=C/C=C/C=C/[C@H](O[C@@H]2O[C@H](C)[C@@H](O)[C@H](N)[C@@H]2O)C[C@@H]2O[C@](O)(C[C@@H](O)C[C@@H](O)[C@H](O)CC[C@@H](O)C[C@@H](O)CC(=O)O[C@H]1C)C[C@H](O)[C@H]2C(=O)O [Free AmB, Amphotericin B]
- toxicity to cells (RAW 264.7 cells; AmB and dextran-AmB conjugates, equivalent AmB amounts): extremely toxic
- Toxicity IC50 (RAW 264.7 cells; murine RAW 264.7 cell line, 3H-thymidine incorporation): 9 μgAmB/ml
- Hemolysis (Sheep erythrocytes): 16 μgAmB/ml
- toxicity/activity to parasites ([4]; AmB and dextran-AmB conjugates): extremely toxic
- Antiparasitic activity IC50 ([4]; Leishmania donovani, 3H-thymidine incorporation): 0.05 μgAmB/ml

From patent US20100159012A1, “Conjugates of Therapeutically Active Compounds” (priority 2005, published 2010)
